Here are results for 23 molecules from patent US7868135B2, “Compositions of lipopeptide antibiotic derivatives and methods of use thereof” (priority 2003, dated 2011).

Structures are written as SMILES. Starred links: 1 amine or outer side, 2 acyl side, 3 side chain; linkers in the order of their positions; H or OH if unused. Positions of bridges follow the written chain, without caps; N, C: chain ends. Non-standard residues stand in square brackets, D forms with d. Residues, ends and D or L forms follow the SMILES beside them. Groups on a side chain read outwards from the residue. ξ: configuration not given here. *: point of attachment. X30 = CC(NC(=O)Cc1ccc(N)cc1)C(N[*:1])C(=O)[*:2]; X17 = CSC[C@H](N)C(=O)NC(C)C(N[*:1])C(=O)[*:2]; ξAbu(βξ-NH2) = CC(N[*:3])C(N[*:1])C(=O)[*:2]; Lys(Me3) = C[N+](C)(C)CCCC[C@H](N)C(=O)O; Arg(Me2s) = CN=C(NC)NCCC[C@H](N)C(=O)O; Pentadecanoyl = CCCCCCCCCCCCCCC(=O)*; ξAsp(βξ-Me) = CC(C(=O)O)C(N)C(=O)O; Dab = NCC[C@H](N)C(=O)O; Pip = O=C(O)[CH]1CCCCN1; ξD = NC(CC(=O)O)C(=O)O; ξPip = O=C(O)C1CCCCN1; ξV = CC(C)C(N)C(=O)O; ξP = O=C(O)C1CCCN1; GABA = NCCCC(=O)O; Sar = CNCC(=O)O

The assay concerns Staphylococcus aureus (MSSA). The settings on record: 24 h. The procedure, abridged: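 Broth microdilution MIC per NCCLS M7-A6 with doubling serial dilutions, in cation-adjusted Mueller-Hinton broth supplemented with 0.625 mM calcium.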
Take `CCCCCCCCCCCCCCC(=O)NC(CC(=O)O)C(=O)NC1C(=O)N2CCCCC2C(=O)NC(C(C)C(=O)O)C(=O)NC(CC(=O)O)C(=O)NCC(=O)NC(CC(=O)O)C(=O)NCC(=O)NC(C(C)NC(=O)CN(C)C(=O)[C@@H](N)CCN)C(=O)NC(C(C)C)C(=O)N2CCCC2C(=O)NC1C` (stereo partly drawn) [Compound 145, C15-Amphomycin-9-Sar-gDab] (Pentadecanoyl-[ξD][ξAbu(βξ-NH2)][ξPip][ξAsp(βξ-Me)][ξD]G[ξD]G[ξAbu(βξ-NH2)]([Sar-Dab])[ξV][ξP]; lactam 2-C): the MIC turned out to be 2 µg/mL. Next, `CCCCCCCCCCCCCCC(=O)NC(CC(=O)O)C(=O)NC1C(=O)N2CCCCC2C(=O)NC(C(C)C(=O)O)C(=O)NC(CC(=O)O)C(=O)NCC(=O)NC(CC(=O)O)C(=O)NCC(=O)NC(C(C)NC(=O)CN(C)C(=O)[C@@H](N)CN)C(=O)NC(C(C)C)C(=O)N2CCCC2C(=O)NC1C` (some centres unmarked) [Compound 146, C15-Amphomycin-9-Sar-Dap]: 2 µg/mL.

For the molecule `CCCCCCCCCCCCCCC(=O)NC(CC(=O)O)C(=O)NC1C(=O)N2CCCCC2C(=O)NC(C(C)C(=O)O)C(=O)NC(CC(=O)O)C(=O)NCC(=O)NC(CC(=O)O)C(=O)NCC(=O)NC(C(C)NC(=O)CCNC(=O)[C@@H](N)CCCN)C(=O)NC(C(C)C)C(=O)N2CCCC2C(=O)NC1C` (stereo partly drawn) [Compound 148, C15-Amphomycin-9-(β-Ala)-Orn], the MIC lay within 0.5 to 1 µg/mL.

With `CCCCCCCCCCCCCCC(=O)NC(CC(=O)O)C(=O)NC1C(=O)N2CCCCC2C(=O)NC(C(C)C(=O)O)C(=O)NC(CC(=O)O)C(=O)NCC(=O)NC(CC(=O)O)C(=O)NCC(=O)NC(C(C)NC(=O)[C@H]2CCCN2C(=O)[C@H](N)CCCCN)C(=O)NC(C(C)C)C(=O)N2CCCC2C(=O)NC1C` (stereo partly drawn) [Compound 151, C15-Amphomycin-9-(D-Pro)-(D-Lys)], the MIC turned out to be 16 µg/mL. In the case of `CCCCCCCCCCCCCCC(=O)NC(CC(=O)O)C(=O)NC1C(=O)N2CCCCC2C(=O)NC(C(C)C(=O)O)C(=O)NC(CC(=O)O)C(=O)NCC(=O)NC(CC(=O)O)C(=O)NCC(=O)NC(C(C)NC(=O)CNC(=O)[C@@H](N)CCCN)C(=O)NC(C(C)C)C(=O)N2CCCC2C(=O)NC1C` (some centres unmarked) [Compound 153, C15-Amphomycin-9-Gly-Orn] it was 2 µg/mL; in that of `CCCCCCCCCCCCCCC(=O)NC(CC(=O)O)C(=O)NC1C(=O)N2CCCCC2C(=O)NC(C(C)C(=O)O)C(=O)NC(CC(=O)O)C(=O)NCC(=O)NC(CC(=O)O)C(=O)NCC(=O)NC(C(C)NC(=O)CNC(=O)[C@@H](N)CCN)C(=O)NC(C(C)C)C(=O)N2CCCC2C(=O)NC1C` (some centres unmarked) [Compound 154, C15-Amphomycin-9-Gly-gDab], 4 µg/mL; in that of `CCCCCCCCCCCCCCC(=O)NC(CC(=O)O)C(=O)NC1C(=O)N2CCCCC2C(=O)NC(C(C)C(=O)O)C(=O)NC(CC(=O)O)C(=O)NCC(=O)NC(CC(=O)O)C(=O)NCC(=O)NC(C(C)NC(=O)CCNC(=O)[C@@H](N)CCCCN)C(=O)NC(C(C)C)C(=O)N2CCCC2C(=O)NC1C` (stereo partly drawn) [Compound 155, C15-Amphomycin-9-(β-Ala)-Lys], 8 µg/mL.

On to `CCCCCCCCCCCCCCC(=O)NC(CC(=O)O)C(=O)NC1C(=O)N2CCCCC2C(=O)NC(C(C)C(=O)O)C(=O)NC(CC(=O)O)C(=O)NCC(=O)NC(CC(=O)O)C(=O)NCC(=O)NC(C(C)NC(=O)CCCNC(=O)[C@@H](N)CCCCN)C(=O)NC(C(C)C)C(=O)N2CCCC2C(=O)NC1C` (some centres unmarked) [Compound 156, C15-Amphomycin-9-GABA-Lys], for which the MIC turned out to be 1 µg/mL. In the case of `CCCCCCCCCCCCCCC(=O)NC(CC(=O)O)C(=O)NC1C(=O)N2CCCCC2C(=O)NC(C(C)C(=O)O)C(=O)NC(CC(=O)O)C(=O)NCC(=O)NC(CC(=O)O)C(=O)NCC(=O)NC(C(C)NC(=O)CNC(=O)[C@@H](N)CN)C(=O)NC(C(C)C)C(=O)N2CCCC2C(=O)NC1C` (some centres unmarked) [Compound 157, C15-Amphomycin-9-Gly-Dap] it was 4 to 8 µg/mL.

As for `CCCCCCCCCCCCCCC(=O)NC(CC(=O)O)C(=O)NC1C(=O)N2CCCCC2C(=O)NC(C(C)C(=O)O)C(=O)NC(CC(=O)O)C(=O)NCC(=O)NC(CC(=O)O)C(=O)NCC(=O)NC(C(C)NC(=O)CNC(=O)[C@@H](N)CCCCCN)C(=O)NC(C(C)C)C(=O)N2CCCC2C(=O)NC1C` (some centres unmarked) [Compound 158, C15-Amphomycin-9-Gly-hLys], the MIC fell in the range of 1 to 2 µg/mL. Next, `CCCCCCCCCCCCCCC(=O)NC(CC(=O)O)C(=O)NC1C(=O)N2CCCCC2C(=O)NC(C(C)C(=O)O)C(=O)NC(CC(=O)O)C(=O)NCC(=O)NC(CC(=O)O)C(=O)NCC(=O)NC(C(C)NC(=O)CCCNC(=O)[C@@H](N)CCN)C(=O)NC(C(C)C)C(=O)N2CCCC2C(=O)NC1C` (stereo partly drawn) [Compound 159, C15-Amphomycin-9-GABA-gDab] (Pentadecanoyl-[ξD][ξAbu(βξ-NH2)][ξPip][ξAsp(βξ-Me)][ξD]G[ξD]G[ξAbu(βξ-NH2)]([GABA-Dab])[ξV][ξP]; lactam 2-C): 0.5 to 1 µg/mL; `CCCCCCCCCCCCCCC(=O)NC(CC(=O)O)C(=O)NC1C(=O)N2CCCCC2C(=O)NC(C(C)C(=O)O)C(=O)NC(CC(=O)O)C(=O)NCC(=O)NC(CC(=O)O)C(=O)NCC(=O)NC(C(C)NC(=O)C(C)(C)N)C(=O)NC(C(C)C)C(=O)N2CCCC2C(=O)NC1C` (centres unmarked) [Compound 161, C15-Amphomycin-9-Aib]: 8 µg/mL; `CCCCCCCCCCCCCCC(=O)NC(CC(=O)O)C(=O)NC1C(=O)N2CCCCC2C(=O)NC(C(C)C(=O)O)C(=O)NC(CC(=O)O)C(=O)NCC(=O)NC(CC(=O)O)C(=O)NCC(=O)NC(C(C)NC(=O)[C@@H](N)CSC)C(=O)NC(C(C)C)C(=O)N2CCCC2C(=O)NC1C` (stereo partly drawn) [Compound 162, C15-Amphomycin-9-MeCys] (Pentadecanoyl-[ξD][ξAbu(βξ-NH2)][ξPip][ξAsp(βξ-Me)][ξD]G[ξD]G[X17][ξV][ξP]; lactam 2-C): 8 µg/mL. Next, `CCCCCCCCCCCCCCC(=O)NC(CC(=O)O)C(=O)NC1C(=O)N2CCCCC2C(=O)NC(C(C)C(=O)O)C(=O)NC(CC(=O)O)C(=O)NCC(=O)NC(CC(=O)O)C(=O)NCC(=O)NC(C(C)NC(=O)[C@@H](N)CCC)C(=O)NC(C(C)C)C(=O)N2CCCC2C(=O)NC1C` (some centres unmarked) [Compound 163, C15-Amphomycin-9-Nvl]: 8 µg/mL; `CCCCCCCCCCCCCCC(=O)NC(CC(=O)O)C(=O)NC1C(=O)N2CCCCC2C(=O)NC(C(C)C(=O)O)C(=O)NC(CC(=O)O)C(=O)NCC(=O)NC(CC(=O)O)C(=O)NCC(=O)NC(C(C)NC(=O)[C@@H](N)CC)C(=O)NC(C(C)C)C(=O)N2CCCC2C(=O)NC1C` (some centres unmarked) [Compound 164, C15-Amphomycin-9-Abu]: 4 µg/mL. In the case of `CCCCCCCCCCCCCCC(=O)NC(CC(=O)O)C(=O)NC1C(=O)N2CCCCC2C(=O)NC(C(C)C(=O)O)C(=O)NC(CC(=O)O)C(=O)NCC(=O)NC(CC(=O)O)C(=O)NCC(=O)NC(C(C)NC(=O)[C@@H](N)CCCNC(N)=O)C(=O)NC(C(C)C)C(=O)N2CCCC2C(=O)NC1C` (some centres unmarked) [Compound 165, C15-Amphomycin-9-Cit] it was 4 µg/mL. With `CCCCCCCCCCCCCCC(=O)NC(CC(=O)O)C(=O)NC1C(=O)N2CCCCC2C(=O)NC(C(C)C(=O)O)C(=O)NC(CC(=O)O)C(=O)NCC(=O)NC(CC(=O)O)C(=O)NCC(=O)NC(C(C)NC(=O)[C@@H](N)CCCNC(=NC)NC)C(=O)NC(C(C)C)C(=O)N2CCCC2C(=O)NC1C` (stereo partly drawn) [Compound 166, C15-Amphomycin-9-(ME)2Arg] (Pentadecanoyl-[ξD][ξAbu(βξ-NH2)][ξPip][ξAsp(βξ-Me)][ξD]G[ξD]G[ξAbu(βξ-NH2)](Arg(Me2s))[ξV][ξP]; lactam 2-C), the MIC amounted to 32 µg/mL. In the case of `CCCCCCCCCCCCCCC(=O)NC(CC(=O)O)C(=O)NC1C(=O)N2CCCCC2C(=O)NC(C(C)C(=O)O)C(=O)NC(CC(=O)O)C(=O)NCC(=O)NC(CC(=O)O)C(=O)NCC(=O)NC(C(C)NC(=O)[C@@H]2C[C@@H](O)CN2)C(=O)NC(C(C)C)C(=O)N2CCCC2C(=O)NC1C` (some centres unmarked) [Compound 167, C15-Amphomycin-9-Hyp] it was 4 to 8 µg/mL; in that of `CCCCCCCCCCCCCCC(=O)NC(CC(=O)O)C(=O)NC1C(=O)N2CCCCC2C(=O)NC(C(C)C(=O)O)C(=O)NC(CC(=O)O)C(=O)NCC(=O)NC(CC(=O)O)C(=O)NCC(=O)NC(C(C)NC(=O)Cc2ccc(N)cc2)C(=O)NC(C(C)C)C(=O)N2CCCC2C(=O)NC1C` (stereo not drawn) [Compound 168, C15-Amphomycin-9-(p-Apa)] (Pentadecanoyl-D[ξAbu(βξ-NH2)][Pip][ξAsp(βξ-Me)]DGDG[X30]VP; lactam 2-C; configuration not given here), 32 to 64 µg/mL; in that of `CCCCCCCCCCCCCCC(=O)NC(CC(=O)O)C(=O)NC1C(=O)N2CCCCC2C(=O)NC(C(C)C(=O)O)C(=O)NC(CC(=O)O)C(=O)NCC(=O)NC(CC(=O)O)C(=O)NCC(=O)NC(C(C)NC(=O)[C@@H](N)C(C)C)C(=O)NC(C(C)C)C(=O)N2CCCC2C(=O)NC1C` (some centres unmarked) [Compound 169, C15-Amphomycin-9-Val], 4 µg/mL. As for `CCCCCCCCCCCCCCC(=O)NC(CC(=O)O)C(=O)NC1C(=O)N2CCCCC2C(=O)NC(C(C)C(=O)O)C(=O)NC(CC(=O)O)C(=O)NCC(=O)NC(CC(=O)O)C(=O)NCC(=O)NC(C(C)NC(=O)[C@@H](N)CCCC[N+](C)(C)C)C(=O)NC(C(C)C)C(=O)N2CCCC2C(=O)NC1C` (stereo partly drawn) [Compound 170, C15-Amphomycin-9-(ME)3Lys] (Pentadecanoyl-[ξD][ξAbu(βξ-NH2)][ξPip][ξAsp(βξ-Me)][ξD]G[ξD]G[ξAbu(βξ-NH2)](Lys(Me3))[ξV][ξP]; lactam 2-C), the MIC turned out to be 2 µg/mL.

Turning to `CCCCCCCCCCCCCCC(=O)NC(CC(=O)O)C(=O)NC1C(=O)N2CCCCC2C(=O)NC(C(C)C(=O)O)C(=O)NC(CC(=O)O)C(=O)NCC(=O)NC(CC(=O)O)C(=O)NCC(=O)NC(C(C)NC(=O)[C@@H](N)CCCC)C(=O)NC(C(C)C)C(=O)N2CCCC2C(=O)NC1C` (some centres unmarked) [Compound 171, C15-Amphomycin-9-Nle], the MIC came to 8 µg/mL. In the case of `CCCCCCCCCCCCCCC(=O)NC(CC(=O)O)C(=O)NC1C(=O)N2CCCCC2C(=O)NC(C(C)C(=O)O)C(=O)NC(CC(=O)O)C(=O)NCC(=O)NC(CC(=O)O)C(=O)NCC(=O)NC(C(C)NC(=O)CCNC(=O)CCCCN)C(=O)NC(C(C)C)C(=O)N2CCCC2C(=O)NC1C` (stereo not drawn) [Compound 173, C15-Amphomycin-9-(β-Ala)-(5-Ava)] it was 1 µg/mL.
